The term melting point denotes the temperature of the solid-liquid transition.

For the compound `Cc1c(C(=O)NN2CCS(=O)(=O)CC2)nn(-c2ccc(Cl)cc2Cl)c1-c1ccc(C#CCCC#N)cc1`, the melting point fell in the range of 278 to 280 °C.

Values taken from US20220024910A1 (published 2022).
